Test results reported in patent US10280198B2, “Therapeutic agents for reducing parathyroid hormone levels” (KAI PHARMACEUTICALS, INC., priority 2009, dated 2019).
Square brackets hold non-standard residues; d marks the D form. Peptide text beside a SMILES is read from it. dNle = CCCC[C@@H](N)C(=O)O; dNva = CCC[C@@H](N)C(=O)O

Columns and labels:
[1] = biological target: T1, human calcium-sensing receptor (CaSR) (Homo sapiens, UniProt P41180); assay: In vitro cell assay in HEK-293 expressing the human calcium-sensing receptor (IP1 production); type: cell-based; settings: for EC50: Table 5, IP1 production in HEK293 cells expressing human CaSR, eight concentrations in duplicate, read-out: EC50 in CaSR in vitro assay
T1 construct: expressed in transfected cells; host or cells: HEK 293T cells, transiently transfected (lipofectamine 2000); in some cases HEK293 cells stably transfected
T1 sequence (P41180 20-1078): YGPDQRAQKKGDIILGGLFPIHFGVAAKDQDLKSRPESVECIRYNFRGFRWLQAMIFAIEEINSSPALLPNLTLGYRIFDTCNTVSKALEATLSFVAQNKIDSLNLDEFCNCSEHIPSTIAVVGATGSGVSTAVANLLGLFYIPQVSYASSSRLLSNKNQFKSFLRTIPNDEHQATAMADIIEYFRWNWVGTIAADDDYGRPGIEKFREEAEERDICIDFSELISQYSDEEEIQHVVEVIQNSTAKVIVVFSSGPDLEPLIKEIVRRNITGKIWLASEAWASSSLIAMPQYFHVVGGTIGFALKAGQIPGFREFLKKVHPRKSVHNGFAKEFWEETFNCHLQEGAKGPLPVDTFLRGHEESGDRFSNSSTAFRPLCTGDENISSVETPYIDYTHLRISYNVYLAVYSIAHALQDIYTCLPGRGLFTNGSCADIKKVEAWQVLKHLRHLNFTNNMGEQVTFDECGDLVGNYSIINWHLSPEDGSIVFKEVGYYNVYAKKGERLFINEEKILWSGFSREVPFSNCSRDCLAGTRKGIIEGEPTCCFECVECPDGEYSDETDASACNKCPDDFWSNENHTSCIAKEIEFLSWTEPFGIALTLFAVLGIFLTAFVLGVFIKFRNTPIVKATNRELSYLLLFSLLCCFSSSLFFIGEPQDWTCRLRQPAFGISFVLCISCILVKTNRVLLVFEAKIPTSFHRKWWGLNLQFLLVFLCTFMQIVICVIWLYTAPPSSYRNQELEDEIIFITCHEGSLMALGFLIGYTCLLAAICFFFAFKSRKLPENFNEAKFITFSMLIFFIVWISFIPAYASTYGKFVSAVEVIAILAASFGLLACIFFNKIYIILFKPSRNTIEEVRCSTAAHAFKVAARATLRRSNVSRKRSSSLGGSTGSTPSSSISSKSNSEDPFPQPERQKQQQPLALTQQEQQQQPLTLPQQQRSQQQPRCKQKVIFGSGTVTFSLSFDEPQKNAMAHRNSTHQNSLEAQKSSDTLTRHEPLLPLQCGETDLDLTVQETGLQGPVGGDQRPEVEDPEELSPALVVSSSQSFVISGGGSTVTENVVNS
Description: The activity of a variety of peptides and conjugates was tested against the human CaSR. These studies were conducted by measuring IP1 production in HEK293 cells that express the human CaSR. Each peptide was tested in eight different concentrations, in duplicates, to establish a dose response curve. Curve fitting was performed using GraphPad Prism. In Table 5, and throughout the specification, residues provided in capital letters are L-amino acids, while lower case letters indicate D-amino acids. “Ac” indicates an acetyl capping group, “NH2” indicates an amide capping group, “Ac-bAla” is an acetylated beta-alanine, “GSH” indicates reduced glutathione, “GS” indicates oxidized glutathione, “PEG” refers to polyethylene glycol, “PEG2” and “PEGS” refer to polyethylene glycol moieties of 2 kDa and 5 kDa, respectively, and “Mpa” refers to mercaptopropionic acid.
The day after, these cells were transfected with human CaSR receptor using lipofectamine 2000 transfection reagent 24 hrs post transfection, cells were seeded in 384 well plates at 8,000 cells/well. […] In some cases, EC50 values were determined by measuring inositol monophosphate production in the HEK293 cells, stably transfected with the human calcium-sensing receptor (see Table 1).
Cells were incubated with compounds at various concentrations (1 mM or 300 μM as the highest and further ½ log serial dilutions) at 37° C. for 1.5 hrs before reaction termination. […] In brief, incubation with the compound was terminated by sequentially adding D2 labeled-IP1 and cryptate-labeled anti-IP1 in lysis buffer and further incubating at room temperature for 60 minutes. […] Non-transfected 293 cells were used as negative control.
IP1 concentrations were calculated from standard curves (generated with Graph Pad Prism ver. 4) using known concentrations of IP1 standards.

plasma PTH = assay: In vivo PTH lowering after IV bolus in isoflurane-anesthetized normal Sprague Dawley rats; set-up: species or system rat; settings: for 0.5 mg/kg IV bolus % PTH AUC of saline control: normal rats, AUC 1-4 h
Description: The peptides were administered intravenously at a dose of 0.5 mg/kg into isoflurane-anesthetized normal Sprague Dawley rats. A control group of rats was treated with saline. Blood was drawn prior to dosing and every hour for 4 hours. Rats were maintained under isoflurane anesthesia for the entire study. […] Percent PTH reduction was calculated according to the following formula: AUCcmpd treated/AUCsaline control*100.
An intravenous (IV) bolus of saline was used as a control. Plasma (K2EDTA) PTH levels were assessed prior to dosing and 1, 2, 3 and 4 hours after dosing. Rats were maintained under isoflurane anesthesia for the entire study. […] In FIG. 2B, PTH is shown as percent of the baseline pre-dose value.
A series of compounds having an L-amino acid residue substituted for a D-amino acid residue were prepared. The compounds were administered as an IV bolus to normal Sprague Dawley rats at a dose of 0.5 mg/kg. An intravenous (IV) bolus of saline was used as a control. […] Rats were maintained under isoflurane anesthesia for the entire study.

[2] = tested on: rat peritoneal mast cells; assay: In vitro histamine induction in rat peritoneal mast cells; type: cell-based
Description: To further evaluate the relationship between compound structure and histamine release, a series of compounds was prepared and assessed for their ability to trigger induction of histamine in an in vitro assay using rat peritoneal mast cells. In this assay, compounds are incubated at 10 μM for 15 minutes at 37° C. with cells isolated from peritoneal lavage of SD rats. Following incubation, cell medium is collected and histamine is determined.
Accordingly, and as can be appreciated in view of the PTH data and the histamine data described hereinabove, in one embodiment, a compound that has activity to decrease PTH level in a subject in the absence of a histamine response is contemplated. In certain embodiments, absence of a histamine response intends a dose of the compound that produces a less than 10-fold, more preferably 8-fold, still more preferably 5-fold, and even still more preferably 3-fold, increase in histamine, measured in vitro in an assay as described herein, where the fold change is determined based on histamine levels before incubation with the compound and after 15 minutes incubation with compound. In a specific embodiment, the histamine response is determined in an in vitro assay using rat peritoneal mast cells isolated from peritoneal lavage of normal Sprague Dawley rats, and where the fold change is determined based on histamine levels before incubation with the compound and after 15 minutes incubation with compound. In the studies conducted herein, the in vitro evaluation of histamine release was performed using isolated rat peritoneal mast cells isolated by peritoneal lavage using cold HBSS+25 mM HEPES pH 7.4 containing heparin (5 u/mL). Cells were washed twice in stimulation buffer (HBSS+25 mM HEPES pH 7.4) and incubated with 10 μM of compound in stimulation buffer (HBSS+25 mM HEPES pH 7.4) for 15 minutes in a 96-well plate ([…]) at 37° C. Cell supernatant was analyzed for histamine using histamine EIA kit (Cayman #589651).
For in vitro evaluation of histamine release, isolated rat peritoneal mast cells were isolated by performing peritoneal lavage using cold HBSS+25 mM HEPES pH 7.4 containing heparin (5 u/mL). Cells were washed twice in stimulation buffer (HBSS+25 mM HEPES pH 7.4) and incubated with 10 μM of compound in stimulation buffer (HBSS+25 mM HEPES pH 7.4) for 15 minutes in a 96-well plate (10^6/well) at 37° C. Cell supernatant was analyzed for histamine using histamine EIA kit (Cayman #589651).

Compound	EC50 [1] [µM]	Histamine in vitro Fold change of non-treated at 10 uM [2] [fold]	other results
N=C(N)NCCC[C@@H](NC(=O)[C@@H](CCCNC(=N)N)NC(=O)[C@@H](CCCNC(=N)N)NC(=O)[C@@H](CCCNC(=N)N)NC(=O)[C@@H](CCCNC(=N)N)NC(=O)[C@@H](CCCNC(=N)N)NC(=O)[C@H](N)CS)C(N)=O [SEQ ID NO: 80, crrrrrr-NH2]	1.1	–	–
CC(=O)N[C@H](CS)C(=O)N[C@H](Cc1ccc(O)cc1)C(=O)NCC(=O)N[C@H](CCCNC(=N)N)C(=O)N[C@H](CCCCN)C(=O)N[C@H](CCCCN)C(=O)N[C@H](CCCNC(=N)N)C(=O)N[C@H](CCCNC(=N)N)C(=O)N[C@H](CCC(N)=O)C(=O)N[C@H](CCCNC(=N)N)C(=O)N[C@H](CCCNC(=N)N)C(=O)N[C@H](CCCNC(=N)N)C(N)=O [SEQ ID NO: 50, Ac-cygrkkrrqrrr-NH2]	2	–	–
CC(=O)N[C@@H](Cc1ccc(O)cc1)C(=O)NCC(=O)N[C@@H](CCCNC(=N)N)C(=O)N[C@@H](CCCCN)C(=O)N[C@@H](CCCCN)C(=O)N[C@@H](CCCNC(=N)N)C(=O)N[C@@H](CCCNC(=N)N)C(=O)N[C@@H](CCC(N)=O)C(=O)N[C@@H](CCCNC(=N)N)C(=O)N[C@@H](CCCNC(=N)N)C(=O)N[C@@H](CCCNC(=N)N)C(N)=O [SEQ ID NO: 48]	16	–	–
CC(=O)N[C@@H](CS)C(=O)N[C@H](C)C(=O)N[C@@H](CCCNC(=N)N)C(=O)N[C@H](CCCNC(=N)N)C(=O)N[C@@H](CCCNC(=N)N)C(=O)N[C@H](C)C(=O)N[C@@H](CCCNC(=N)N)C(N)=O [SEQ ID NO: 44, Ac-CaRrRaR-NH2]	–	–	fold decrease in potency relative to Ac-carrrar-NH2 (SEQ ID NO:26) ([1]; human CaSR, HEK293): < 4 fold
CC(=O)N[C@H](CS)C(=O)N[C@H](C)C(=O)N[C@H](CCCNC(=N)N)C(=O)N[C@H](CCCNC(=N)N)C(=O)N[C@H](CCCNC(=N)N)C(=O)N[C@H](C)C(=O)N[C@H](CCCNC(=N)N)C(=O)O [SEQ ID NO: 74, Ac-carrrar-OH]	31	–	–
Ac-c(PEG2-C)arrrar-NH2 (XXXXXXX; D-residues) [SEQ ID NO: 57]	2.3	–	–
CC(=O)N[C@H](CS)C(=O)N[C@H](C)C(=O)N[C@H](CCCNC(=N)N)C(=O)N[C@H](CCCNC(=N)N)C(=O)N[C@H](CCCNC(=N)N)C(=O)N[C@H](CO)C(=O)N[C@H](CCCNC(=N)N)C(N)=O [SEQ ID NO: 92, Ac-carrrsr-NH2] (Ac-[dC][dA][dR][dR][dR][dS][dR]-NH2)	–	1.2	0.5 mg/kg IV bolus % PTH AUC of saline control (plasma PTH; Table 6): 6%

Now from value to compound, other results behind:

EC50 [1] [µM]	Histamine in vitro Fold change of non-treated at 10 uM [2] [fold]	Compound	other results
4.5	–	CC(=O)N[C@H](CS)C(=O)N[C@H](C)C(=O)N[C@H](C)C(=O)N[C@H](CCCNC(=N)N)C(=O)N[C@H](CCCNC(=N)N)C(=O)N[C@H](CCCNC(=N)N)C(=O)N[C@H](CCCNC(=N)N)C(=O)N[C@H](CCCNC(=N)N)C(=O)N[C@H](CCCNC(=N)N)C(N)=O [SEQ ID NO: 76, Ac-caarrrrrr-NH2] (Ac-[dC][dA][dA][dR][dR][dR][dR][dR][dR]-NH2)	–
13	–	CC(=O)N[C@H](CS)C(=O)N[C@H](C)C(=O)N[C@H](CCCNC(=N)N)C(=O)N[C@H](CCCNC(=N)N)C(=O)N[C@H](CCCNC(=N)N)C(=O)N[C@H](C)C(=O)N[C@H](CCCNC(=N)N)C(=O)N[C@H](C)C(=O)N[C@H](CCCNC(=N)N)C(N)=O [SEQ ID NO: 79, Ac-carrrarar-NH2] (Ac-[dC][dA][dR][dR][dR][dA][dR][dA][dR]-NH2)	–
–	1.0	CC(=O)N[C@H](CS)C(=O)N[C@H](CCCNC(=N)N)C(=O)N[C@H](C)C(=O)N[C@H](C)C(=O)N[C@H](CCCNC(=N)N)C(=O)N[C@H](CCCNC(=N)N)C(=O)N[C@H](CCCNC(=N)N)C(N)=O [SEQ ID NO: 24, Ac-craarrr-NH2] (Ac-[dC][dR][dA][dA][dR][dR][dR]-NH2)	% PTH reduction of baseline at 1 hour post IV administration of 0.5 mg/kg compound (plasma PTH; Table 2, isoflurane-anesthetized normal rats, 0.5 mg/kg IV, 1 hour): 8%; 0.5 mg/kg IV bolus % PTH AUC of saline control (plasma PTH; Table 2): 9%
–	1.8	CCC[C@@H](NC(=O)[C@@H](CCCNC(=N)N)NC(=O)[C@@H](CCCNC(=N)N)NC(=O)[C@@H](CCCNC(=N)N)NC(=O)[C@@H](C)NC(=O)[C@@H](CS)NC(C)=O)C(=O)N[C@H](CCCNC(=N)N)C(N)=O [SEQ ID NO: 131, Ac-carrr-dNva-r-NH2] (Ac-[dC][dA][dR][dR][dR][dNva][dR]-NH2)	0.5 mg/kg IV bolus % PTH AUC of saline control (plasma PTH; Table 7): 54%
–	4.5	CC(=O)N[C@H](CS)C(=O)N[C@H](CCCNC(=N)N)C(=O)N[C@H](CCCNC(=N)N)C(=O)N[C@H](CC(C)C)C(=O)N[C@H](CCCNC(=N)N)C(=O)N[C@H](C)C(=O)N[C@H](CCCNC(=N)N)C(N)=O [SEQ ID NO: 114, Ac-crrlrar-NH2] (Ac-[dC][dR][dR][dL][dR][dA][dR]-NH2)	0.5 mg/kg IV bolus % PTH AUC of saline control (plasma PTH; Table 6): 1%
–	2.2	CCCC[C@@H](NC(=O)[C@@H](CS)NC(C)=O)C(=O)N[C@H](CCCNC(=N)N)C(=O)N[C@H](CCCNC(=N)N)C(=O)N[C@H](CCCNC(=N)N)C(=O)N[C@H](C)C(=O)N[C@H](CCCNC(=N)N)C(N)=O [SEQ ID NO: 134, Ac-c-dNle-rrrar-NH2] (Ac-[dC][dNle][dR][dR][dR][dA][dR]-NH2)	0.5 mg/kg IV bolus % PTH AUC of saline control (plasma PTH; Table 7): 10%
